Source: patent publication US20140243302A1, “BRIDGED BICYCLIC COMPOUNDS FOR THE TREATMENT OF BACTERIAL INFECTIONS” (priority 2011, published 2014)
≈ marks a conversion by molar mass, not a printed value.

System: Staphylococcus aureus Smith
Assay: MIC assay, modified agar dilution (CLSI), S. aureus Smith
Assay type: cell-based
Conditions: Staphylococcus aureus, agar dilution, 35° C., 16-20 hr; lowest concentration that completely inhibited growth; read-out: S_aureus_Smith_WT_MIC
In short: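 Strains were spotted at about 1×10^4 CFU onto compound-containing Mueller Hinton agar (two-fold series, 128-0.001 μg/mL), horse blood 5% added for pneumococcus and enterococcus. MIC read after 16-20 hr at 35 °C, following a modified CLSI agar dilution method.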

Compound | MIC
Cc1ccc2ccc(OCCC34CCC(NCc5ccc6c(n5)NC(=O)CO6)(CC3)CO4)nc2n1 [Example 113, 6-((1-(2-(7-Methyl-1,8-naphthyridin-2-yloxy)ethyl)-2-oxabicyclo[2.2.2]octan-4-ylamino)methyl)-2H-pyrido[3,2-b][1,4]oxazin-3(4H)-one] | 16 µg/mL (≈ 33.6 µM)
COc1ccc2ncc(F)c(CC(O)(C(F)(F)F)C34CCC(NCc5ccc6c(n5)NC(=O)CO6)(CC3)CO4)c2n1 (centres unmarked) [Example 138, 6-[({1-[1,1,1-Trifluoro-3-(3-fluoro-6-methoxy-1,5-naphthyridin-4-yl)-2-hydroxypropan-2-yl]-2-oxabicyclo[2.2.2]oct-4-yl}amino)methyl]-2H-pyrido[3,2-b][1,4]oxazin-3(4H)-one] | 0.5 µg/mL (≈ 0.866 µM)
COc1ccc2ncc(=O)n(CCC34CCC(NCc5cc6c(cn5)OCCO6)(CC3)CO4)c2n1 [Example 122, 4-(2-(4-((2,3-Dihydro-[1,4]dioxino[2,3-c]pyridin-7-yl)methylamino)-2-oxabicyclo[2.2.2]octan-1-yl)ethyl)-6-methoxypyrido[3,2-b]pyrazin-3(4H)-one] | 0.063 µg/mL (≈ 0.131 µM)
COc1ccc2ncc(F)c(CC(O)C34CCC(NCc5cc6c(cn5)OCC(=O)N6)(CC3)CO4)c2n1 (single isomer, unassigned) [Example 134, 7-((1-(2-(3-Fluoro-6-methoxy-1,5-naphthyridin-4-yl)-1-hydroxyethyl)-2-oxabicyclo[2.2.2]octan-4-ylamino)methyl)-1H-pyrido[3,4-b][1,4]oxazin-2(3H)-one] | 0.063 µg/mL (≈ 0.124 µM)
O=C1COc2ccc(CNC34CCC(CC(O)c5c(F)cnc6ccc(OCCCO)nc56)(CC3)OC4)nc2N1 (centres unmarked) [Example 210, 1-(2-(3-Fluoro-6-(3-hydroxypropoxy)-1,5-naphthyridin-4-yl)-2-hydroxyethyl)-N-((3-oxo-3,4-dihydro-2H-pyrido[3,2-b][1,4]oxazin-6-yl)methyl)-2-oxabicyclo[2.2.2]octan-4-aminium chloride] | 0.25 µg/mL
COc1ccc2ncc(F)c(CC(F)C34CCC(NCc5ccc6c(n5)NC(=O)CO6)(CC3)CO4)c2n1 (centres unmarked) [Example 157a, 6-[({1-[1-Fluoro-2-(3-fluoro-6-methoxy-1,5-naphthyridin-4-yl)ethyl]-2-oxabicyclo[2.2.2]oct-4-yl}amino)methyl]-2H-pyrido[3,2-b][1,4]oxazin-3(4H)-one] | 2 µg/mL (≈ 3.91 µM)
COc1ccc2ncc(F)c(CC(O)C34CCC(NCc5ccc6c(n5)OCCO6)(CC3)CO4)c2n1 (centres unmarked) [Example 147, 1-(4-((2,3-Dihydro-[1,4]dioxino[2,3-b]pyridin-6-yl)methylamino)-2-oxabicyclo[2.2.2]octan-1-yl)-2-(3-fluoro-6-methoxy-1,5-naphthyridin-4-yl)ethanol] | 0.125 µg/mL (≈ 0.252 µM)
COc1ccc2ncc(F)c(CCC34CCC(NCc5ccc6ncc(=O)[nH]c6n5)(CC3)CO4)c2n1 [Example 178, 6-[({1-[2-(3-Fluoro-6-methoxy-1,5-naphthyridin-4-yl)ethyl]-2-oxabicyclo[2.2.2]oct-4-yl}amino)methyl]pyrido[2,3-b]pyrazin-3(4H)-one] | 0.063 µg/mL (≈ 0.128 µM)
COc1ccc2ncc(Cl)c(CCC34CCC(NCc5ccc6c(n5)NC(=O)CO6)(CC3)CC4)c2n1.Cl [Example 5, 6-((4-(2-(3-Chloro-6-methoxy-1,5-naphthyridin-4-yl)ethyl)bicyclo[2.2.2]octan-1-ylamino)methyl)-2H-pyrido[3,2-b][1,4]oxazin-3(4H)-one Hydrochloride] | 0.031 µg/mL
COc1ccc2ncc(F)c(CCC34CCC(NC(=O)c5nc6c(cc5Cl)SCC(=O)N6)(CC3)CC4)c2n1 [Example 196, 7-Chloro-N-(4-(2-(3-fluoro-6-methoxy-1,5-naphthyridin-4-yl)ethyl)bicyclo[2.2.2]octan-1-yl)-3-oxo-3,4-dihydro-2H-pyrido[3,2-b][1,4]thiazine-6-carboxamide] | 0.25 µg/mL (≈ 0.45 µM)
COc1ccc2ncc(Cl)c(CCC34CCC(NCc5ccc6c(n5)NC(=O)CO6)(CC3)CO4)c2n1.Cl [Example 16, 6-((1-(2-(3-Chloro-6-methoxy-1,5-naphthyridin-4-yl)ethyl)-2-oxabicyclo[2.2.2]octan-4-ylamino)methyl)-2H-pyrido[3,2-b][1,4]oxazin-3(4H)-one Hydrochloride] | 0.016 µg/mL
COc1ccc2ncc(F)c(CCC34CCC(NCc5ncc6c(n5)NC(=O)CO6)(CC3)CO4)c2n1 [Example 142, 2-((1-(2-(3-Fluoro-6-methoxy-1,5-naphthyridin-4-yl)ethyl)-2-oxabicyclo[2.2.2]octan-4-ylamino)methyl)-6H-pyrimido[5,4-b][1,4]oxazin-7(8H)-one] | 0.031 µg/mL (≈ 0.0627 µM)
CC(O)(CC12CCC(NCc3ccc4c(n3)NC(=O)CO4)(CC1)CO2)c1c(F)cnc2ccc(OCCO)nc12 (centres unmarked) [Example 209, 1-(2-(3-Fluoro-6-(2-hydroxyethoxy)-1,5-naphthyridin-4-yl)-2-hydroxypropyl)-N-((3-oxo-3,4-dihydro-2H-pyrido[3,2-b][1,4]oxazin-6-yl)methyl)-2-oxabicyclo[2.2.2]octan-4-aminium chloride] | 8 µg/mL
COc1cc2c(CCC34CCC(NCc5ccc6c(n5)NC(=O)CO6)(CC3)CO4)c(F)cnc2cc1F [Example 141, 6-[({1-[2-(3,7-Difluoro-6-methoxyquinolin-4-yl)ethyl]-2-oxabicyclo[2.2.2]oct-4-yl}amino)methyl]-2H-pyrido[3,2-b][1,4]oxazin-3(4H)-one] | 0.063 µg/mL (≈ 0.123 µM)
COc1ccc2ncc(F)c(C(O)CC34CCC(NCc5ccc6c(n5)NC(=O)CO6)(CC3)CS4)c2n1 (centres unmarked) [Example 208, 6-(((1-(2-(3-Fluoro-6-methoxy-1,5-naphthyridin-4-yl)-2-hydroxyethyl)-2-thiabicyclo[2.2.2]octan-4-yl)amino)methyl)-2H-pyrido[3,2-b][1,4]oxazin-3(4H)-one] | 0.06 µg/mL (≈ 0.114 µM)
CCOC(=O)COc1ccc2ncc(F)c(CCC34CCC(NCc5ccc6c(n5)NC(=O)CO6)(CC3)CO4)c2n1 [Example 32, Ethyl 2-(7-Fluoro-8-(2-(4-((3-oxo-3,4-dihydro-2H-pyrido[3,2-b][1,4]oxazin-6-yl)methylamino)-2-oxabicyclo[2.2.2]octan-1-yl)ethyl)-1,5-naphthyridin-2-yloxy)acetate] | 0.25 µg/mL (≈ 0.442 µM)
COc1ccc2ncc(F)c(CCC34CCC(NCc5cc(OC)c(OC)cn5)(CC3)CO4)c2n1 [Example 62, N-((4,5-Dimethoxypyridin-2-yl)methyl)-1-(2-(3-fluoro-6-methoxy-1,5-naphthyridin-4-yl)ethyl)-2-oxabicyclo[2.2.2]octan-4-amine] | 4 µg/mL (≈ 8.29 µM)
COc1ccc2ncc(F)c(CCC34CCC(NCc5cc6ccccc6n(C)c5=O)(CC3)CO4)c2n1 [Example 79, 3-((1-(2-(3-Fluoro-6-methoxy-1,5-naphthyridin-4-yl)ethyl)-2-oxabicyclo[2.2.2]octan-4-ylamino)methyl)-1-methylquinolin-2(1H)-one] | 0.5 µg/mL (≈ 0.995 µM)
Cl.O=C1COc2ccc(CNC34CCC(CCN5C(=O)COc6cccnc65)(CC3)OC4)nc2N1 [Example 109, 6-((1-(2-(3-Oxo-2H-pyrido[3,2-b][1,4]oxazin-4(3H)-yl)ethyl)-2-oxabicyclo[2.2.2]octan-4-ylamino)methyl)-2H-pyrido[3,2-b][1,4]oxazin-3(4H)-one Hydrochloride] | 8 µg/mL
COc1ccc2ncc(F)c(CCC34CCC(NCc5ccc6c(c5)OCCO6)(CC3)CO4)c2n1 [Example 69, N-((2,3-Dihydrobenzo[b][1,4]dioxin-6-yl)methyl)-1-(2-(3-fluoro-6-methoxy-1,5-naphthyridin-4-yl)ethyl)-2-oxabicyclo[2.2.2]octan-4-amine] | 0.008 µg/mL (≈ 0.0167 µM)
COc1cc(OC)c2nccc(CCC34CCC(NCc5ccc6c(n5)NC(=O)CO6)(CC3)CO4)c2n1 [Example 150, 6-((1-(2-(6,8-Dimethoxy-1,5-naphthyridin-4-yl)ethyl)-2-oxabicyclo[2.2.2]octan-4-ylamino)methyl)-2H-pyrido[3,2-b][1,4]oxazin-3(4H)-one] | 0.5 µg/mL (≈ 0.989 µM)
COc1ccc2ncc(F)c(CCC34CCC(NCc5ccc(N6CCOCC6)nc5)(CC3)CO4)c2n1 [Example 64, 1-(2-(3-Fluoro-6-methoxy-1,5-naphthyridin-4-yl)ethyl)-N-((6-morpholinopyridin-3-yl)methyl)-2-oxabicyclo[2.2.2]octan-4-amine] | 4 µg/mL (≈ 7.88 µM)

Same assay, conditions: agar dilution, 35° C., 16-20 hr; lowest concentration that completely inhibited growth

Compound | S_aureus_Smith_WT_MIC
COc1ccc2ncc(Cl)c(C(O)CC34CCC(NCc5ccc6c(n5)NC(=O)CO6)(CC3)CC4)c2n1 (single isomer, unassigned) [Example 13a, 6-((4-(2-(3-Chloro-6-methoxy-1,5-naphthyridin-4-yl)-2-hydroxyethyl)bicyclo[2.2.2]octan-1-ylamino)methyl)-2H-pyrido[3,2-b][1,4]oxazin-3(4H)-one] | 0.0310 µg/mL
COc1ccc2ncc(Cl)c(C(O)CC34CCC(NCc5ccc6c(n5)NC(=O)CO6)(CC3)CC4)c2n1 (single isomer, unassigned) [Example 13b, 6-((4-(2-(3-Chloro-6-methoxy-1,5-naphthyridin-4-yl)-2-hydroxyethyl)bicyclo[2.2.2]octan-1-ylamino)methyl)-2H-pyrido[3,2-b][1,4]oxazin-3(4H)-one] | 0.0630 µg/mL
N#Cc1cnc2ccc(=O)n(CC(O)C34CCC(NCc5cc6c(cn5)OCCO6)(CC3)CO4)c2c1 (single isomer, unassigned; enantiomer b) [Example 161, 5-(2-(4-((2,3-Dihydro-[1,4]dioxino[2,3-c]pyridin-7-yl)methylamino)-2-oxabicyclo[2.2.2]octan-1-yl)-2-hydroxyethyl)-6-oxo-5,6-dihydro-1,5-naphthyridine-3-carbonitrile (Enantiomer B)] | 2.00 µg/mL

Same assay, conditions: agar dilution, 35° C., 16-20 hr; lowest concentration that completely inhibited growth; Hydrochloride

Compound | S_aureus_Smith_WT_MIC
COc1ccc2ncc(F)c(CCC34CCC(NCc5ccc6c(n5)NC(=O)C(C)O6)(CC3)CO4)c2n1.Cl (single isomer, unassigned) [Example 100a, 6-((1-(2-(3-Fluoro-6-methoxy-1,5-naphthyridin-4-yl)ethyl)-2-oxabicyclo[2.2.2]octan-4-ylamino)methyl)-2-methyl-2H-pyrido[3,2-b][1,4]oxazin-3(4H)-one Hydrochloride] | 0.250 µg/mL
